pEC50: −log10 of the molar value.
Experiments:
APPswe/PS1∆E9 mice = tested on: APPswe/PS1∆E9 mice; set-up: method as in PMID 22194796, PMID 23673233, PMID 27149904; conditions: administered to 3-month-old APPswe/PS1∆E9 mice for 7 months; cited from earlier work
rat hippocampal neurons = assay: Aβ toxicity (extracellular); type: cell-based; conditions: Hippocampal neuron, read-out: Half-maximal effective concentration, Aβ toxicity (extracellular)
[1] = tested on: very old transgenic AD mice; set-up: method as in PMID 23673233; conditions: fed to very old transgenic AD mice; cited from earlier work
[2] = tested on: Primary embryonic day 18 cortical cells; assay: Trophic factor withdrawal assay; type: cell-based; conditions: Cortical neurone; Cortical neuron; cell viability; read-out: Half-maximal effective concentration, Trophic factor withdrawal
Protocol: (§1) The various phenotypic screening assays were conducted as previously described. Briefly, HT-22, primary cortical neurons, or MC65 was plated and exposed to the different environmental stresses. Cells were treated with varying concentrations of CAD-31, and half-maximal effective concentration (EC50) was determined on the basis of cell viability.
(§2) • An assay that mimics the dramatic loss of neurotrophic support in the old brain is the trophic factor withdrawal assay. Primary embryonic day 18 cortical cells are plated at low density in serum-free medium. At low density, the cells die within 2 days; they can be rescued by combinations of neurotrophic growth factors, but not by one alone ([19] and unpublished data). […] BDNF is a molecule that is also involved in promoting memory and neurogenesis and is reduced in the brain with age and in AD, as well as in other neurological disorders. BDNF has long been considered a drug target for AD [23]. […] A reduction in GSH is a common denominator of old age and essentially all chronic central nervous system (CNS) diseases. J147 and CAD-31 both effectively reduce oxidative stress, with EC50 of 6 nM and 20 nM, respectively. • CAD-31 also prevents loss of energy metabolism that leads to neuron cell death in an in vitro ischemia model. […]

primary cortical neurons = assay: Oxytosis; type: cell-based; conditions: Primary cortical neuron; read-out: Half-maximal effective concentration, Oxytosis
Protocol: as §1, §2

[3] = tested on: senescence-accelerated mouse-prone 8 (SAMP8) mice; set-up: method as in PMID 26564964; conditions: model of sporadic AD; cited from earlier work
HT22 = assay: In vitro ischemia; type: cell-based; conditions: Mus musculus, HT-22, read-out: Half-maximal effective concentration, In vitro ischemia
Protocol: as §1, §2

MC65 = assay: Aβ toxicity (intracellular); type: cell-based, human; conditions: Homo sapiens, MC65, MC65; read-out: Half-maximal effective concentration, Aβ toxicity (intracellular)
Protocol: as §1
• An assay that mimics the dramatic loss of neurotrophic support in the old brain is the trophic factor withdrawal assay. Primary embryonic day 18 cortical cells are plated at low density in serum-free medium. At low density, the cells die within 2 days; they can be rescued by combinations of neurotrophic growth factors, but not by one alone ([19] and unpublished data). […] BDNF is a molecule that is also involved in promoting memory and neurogenesis and is reduced in the brain with age and in AD, as well as in other neurological disorders. BDNF has long been considered a drug target for AD [23]. […] A reduction in GSH is a common denominator of old age and essentially all chronic central nervous system (CNS) diseases. J147 and CAD-31 both effectively reduce oxidative stress, with EC50 of 6 nM and 20 nM, respectively. • CAD-31 also prevents loss of energy metabolism that leads to neuron cell death in an in vitro ischemia model. […] Intracellular Aβ toxicity was assayed in the human neuron cell line MC65 that conditionally expresses the C99 fragment of the amyloid precursor protein. When the cells are induced to make Aβ, the cells die within 4 days. Both J147 and CAD-31 block this toxicity at around 10 nM. Therefore, CAD-31 has a repertoire of neuroprotective activities similar but not identical to that of its parent compound, J147.

Aβ1–42 = Aβ1–42 (Homo sapiens, UniProt P05067); assay: Thioflavin S Aβ1–42 aggregation assay; type: biochemical; conditions: data not shown
[4] = tested on: HT22 cells expressing the brain-derived neurotrophic factor (BDNF) receptor transmembrane receptor kinase B; assay: BDNF-like activity (rescue from serum starvation); type: cell-based; conditions: Mus musculus, HT-22, read-out: Half-maximal effective concentration, BDNF-like activity
Protocol: as §1, §2

normal rodents = tested on: normal rodents; set-up: method as in PMID 22194796, PMID 23673233, PMID 27149904; conditions: cited from earlier work
[5] = tested on: APPswe/PS1∆E9-transgenic mice; set-up: method as in PMID 23785163; conditions: fed to APPswe/PS1∆E9-transgenic mice, preventive paradigm; cited from earlier work

Sequence of Aβ1–42 (P05067 672-713 limits assumed): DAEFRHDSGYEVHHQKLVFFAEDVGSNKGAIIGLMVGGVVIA

SMILES: COc1cccc(/C=N/N(C(=O)C(F)(F)F)c2ccc(C)cc2C)c1 [J147, reference compound]
- loss of synaptic proteins and cognitive decline (APPswe/PS1∆E9 mice): prevents the loss of synaptic proteins and cognitive decline
- pEC50 (rat hippocampal neurons): 7.82
- memory deficits and AD pathology [1]: reverses memory deficits and some AD pathology
- pEC50 [2]: 7.46
- pEC50 (primary cortical neurons): 8.22
- loss of synaptic proteins and cognitive decline [3]: prevents the loss of synaptic proteins and cognitive decline
- pEC50 (HT22): 7.85
- pEC50 (MC65): ~8.00
- binding to and direct inhibition of Aβ1–42 aggregation (Aβ1–42): Neither J147 nor CAD-31 binds to and directly inhibits Aβ1–42 aggregation
- pEC50 [4]: 7.13
- memory (normal rodents): facilitates memory in normal rodents

SMILES: COc1cc(/C=C/c2cc(/C=C/c3ccc(O)c(OC)c3)n(-c3ccccc3)n2)ccc1O [CNB-001]
- accumulation of ubiquitinated, aggregated proteins in the brain [5]: reduces the accumulation of ubiquitinated, aggregated proteins in the brain
